According to patent US20170327556A1, “CARTILAGE-BINDING FUSION PROTEINS” (Merrimack Pharmaceuticals, Inc., priority 2013, published 2017):

Legend:
[1] = test system: human ankle and knee cartilage explants; assay: In vitro joint disease model, explanted human cartilage: ^35S-sulfate incorporation; format: cell-based; conditions: for sulfated matrix biosynthesis in the absence of cytokines, 16 day combination with Dexamethasone: FIG. 14E black bars; for ^35S-sulfate incorporation, 16 D treatment: protein 16 days in combination with Anti-Infl-1, cytokines, versus Disease control
Protocol: Human cartilage explants are harvested from the knee and ankle of human cadaver donors within 24 hours postmortem. Joints are aseptically dissected by a pathologist to assess gross cartilage morphology by the modified Collins scale (Kuettner, et al., Cartilage degeneration in different human joints. Osteoarthritis Cartilage. 2005; 13(2):93-103) and only grade 0 or 1 joints are used. Full-thickness knee cartilage surfaces are harvested from the femoral-patellar groove and chondyles using a scalpel. Full thickness ankle cartilage is harvested from the dome of talus, proximal area under dome of talus, head of the talus, tibial malleolus and fibular malleolus using a scalpel. Using a 4 mm diameter disposable biopsy punch, full thickness cartilage cores are punched from the cartilage surfaces keeping the superficial zone intact and used as explants in culture.
Explants are cultured in 96-well plates in 300 μL of low glucose DMEM (1× Gibco 11885-084) with added Penicillin-Streptomycin (1×, Gibco 15140-122), ascorbic acid (20 μg/mL, Sigma A4403), proline (400 μM, Sigma P5607-256), non-essential amino acids (1×, Sigma M7145), and HEPES ([…], Gibco 15630-080). Explants from 2-3 donors (4-6 explants per donor) are used for each treatment condition for a total explant number of 12-18 per condition. Donor ages were: 67 year male ankle, 71 year male ankle, 76 year female ankle, 59 year male knee, 34 year male knee, and 63 year female knee. Medium is changed every 2 days. On day 14, the medium is supplemented with 5 μCi/mL of ^35S-sodium sulfate (Perkin Elmer NEX041H005MC, 5 mCi).
Time points are taken at day 16 as follows. Explant tissue is washed four times for 30 min each (2 hr total) in 1 mM unlabeled sodium sulfate in PBS. Each explant is weighed wet and frozen at −20° C. until digestion. Tissue digestion is performed with Proteinase K (Roche cat #3115879001) and each explant is digested in 1 mL 500 μg/mL Proteinase K in 50 mM Tris-HCL, 1 mM calcium chloride pH=8.0 buffer at 60° C. overnight. Measurement of sGAG content and DNA content is performed using standard assay methods such as those described in Hoemann, 2004, Methods in Molecular Medicine: Cartilage and Osteoarthritis. Totowa, N.J.: Humana Press Inc.; p. 127-52. ^35S-sulfate content of the digested cartilage explants is quantified by mixing 20 μL of digest with 250 μL of scintillation fluid (Perkin Elmer cat #1200-439) and counting with A WALLAC 1450 MICROBETA TRILUX scintillation counter.
Treatments were given at the following concentrations: GF-Fus1 13.3 nM=135 ng/mL; and GF-Fus3 13.3 nM=181 ng/mL; Dexamethasone 100 nM=39.2 ng/mL. Growth factor and steroid treatment conditions included the cytokines TNF-alpha (R&D Systems, Cat#210-TA, 25 ng/mL), IL-6 (R&D Systems, Cat#206-IL, 50 ng/mL), and IL-6R alpha (R&D Systems, Cat#227-SR, 250 ng/mL) which were supplied in each medium change. GF-Fus1 and GF-Fus3 were added to fresh medium for either the first 8 days (8 D) or the entire 16 day culture duration (16 D), whereas Dexamethasone was added for the entire 16 days in all cases. Controls were either no cytokines (Healthy) or with cytokines alone (Disease). The outcomes measured from the cartilage explants at day 16 were ^35S-sulfate incorporation, DNA, and sGAG content, and sGAG released to media for all media changes.

[2] = ELISA binding of fusion proteins to chondroitin sulfate coated plates; conditions: 6x-Histidine-tagged proteins, FIG. 1B
Protocol: The specificity of binding of fusion proteins to the polysaccharides heparan sulfate and chondroitin sulfate may be determined by measuring the ability of the proteins to bind polysaccharides coated on an ELISA plate. Heparin Binding Plates (BD Biosciences) are coated with 50 μl of 2-10 μg/mL concentration of heparan sulfate or chondroitin sulfate (Sigma-Aldrich®) and incubated overnight at room temperature. Plates are washed with PBS and blocked with 250 μl of 0.2% gelatin in PBS for 1 hour at 37 C. Plates are then washed with PBS and tapped dry. 50 μl of protein in a dilution series is added to the wells and incubated for 2 hours at 37 C. The protein dilution series starts from 100 nM and includes ten additional three-fold dilutions in PBS, 0.2% gelatin and one blank (PBS, 0.2% gelatin only). After the plates are washed in PBS, 50 μl of anti-human IGF-1 (Abcam) at 1:250 in PBST is added and the plates are incubated for 1 hour rotating at room temperature. Plates are washed with PBST and 100 μl of 1:1000 anti-Rabbit-HRP (Cell Signaling Technology®) in PBST is added to each well and the plate is incubated for 1 hour at room temperature. […] The absorbance is measured at 450 nm and the resulting data is analyzed using GraphPad Prism® (GraphPad Software, San Diego, Calif.). […]

[3] = test system: bovine cartilage explants; assay: In vitro joint disease model (IL-1), explanted bovine cartilage: ^35S-sulfate incorporation; format: cell-based; conditions: 4 and 12 day treatments, IL-1, FIG. 16

For “GF-Fus3: C-terminal fusion IGF-1(LR3)-PRELP heparin binding domain”, the “synthesis of new sulfated cartilage matrix (^35S-sulfate incorporation)” value ([1]; 13.3 nM, 16 days with cytokines, with and without Dexamethasone, versus Disease) was “upregulates”, the “sulfated matrix biosynthesis in the absence of cytokines, 16 day combination with Dexamethasone” value ([1]; human knee chondyle cartilage) was “restores sulfated matrix biosynthesis to a level at or above healthy controls” and the “^35S-sulfate incorporation, 16 D treatment” value ([1]; FIGS. 14A-D) was “stimulated”. The “^35S-sulfate incorporation, 8 D treatment” value ([1]; protein first 8 days only, Anti-Infl-1 16 days, cytokines, measured final 48 hours of 16 day culture, FIGS. 14A-D) was “equivalent or superior potency to the continuously delivered proteins”, the “sulfated matrix biosynthesis in the absence of cytokines, protein removed for the final 8 days” value ([1]; with Dexamethasone 16 days, human knee chondyle cartilage, FIG. 14E white bars) was “sustains sulfated matrix biosynthesis at the level equivalent to continuous 16 day treatment” and the “binding to chondroitin sulfate” value [2] was “bound”. The “cartilage matrix synthesis compared to GF-Fus3-His” value [3] was “equivalent”.

For “GF-Fus1: IGF-1 variant polypeptide Long [R^3]-IGF-1, no fused binding domain; used 6x-Histidine-tagged as control [reference compound]”, the “sulfated matrix biosynthesis in the absence of cytokines, 16 day combination with Dexamethasone” value ([1]; human knee chondyle cartilage) was “restores sulfated matrix biosynthesis to a level at or above healthy controls” and the “^35S-sulfate incorporation, 16 D treatment” value ([1]; FIGS. 14A-D) was “stimulated”.
